A short description of experiment [1]: Selectivity index, ratio of IC50 for IFNgamma-induced STAT1 pathway in human Cal33 cells to IC50 for IL-6-induced STAT3 pathway in human Cal33 cells. Format: cell-based. Particulars: CAL-33.
Experiment [2] in a line: cells. Particulars: Homo sapiens, OSC19.
Description: Growth inhibition of human OSC19 cells
The nature of experiment [3]: cells. Particulars: Homo sapiens.
Description: Growth inhibition of human 686LN cells
Experiment [4] is described as follows: cells. Particulars: Homo sapiens, CAL-33.
Description: Growth inhibition of human CAL33 cells
The test system of a further experiment is FaDu. The experiment is described as follows: cells. Conditions: Homo sapiens.
The target of experiment [5] is Tyrosine-protein kinase JAK2 (Homo sapiens) (UniProt O60674). The experiment in a line: Inhibition of JAK2 phosphorylation in human Cal33 cells by Western blot analysis. Format: cell-based. Conditions: CAL-33. (In western blotting, separated proteins are transferred to a membrane and probed.)
Experiment [6] deals with T1, Signal transducer and activator of transcription 1-alpha/beta (Homo sapiens) (UniProt P42224).
T1 sequence (whole entry): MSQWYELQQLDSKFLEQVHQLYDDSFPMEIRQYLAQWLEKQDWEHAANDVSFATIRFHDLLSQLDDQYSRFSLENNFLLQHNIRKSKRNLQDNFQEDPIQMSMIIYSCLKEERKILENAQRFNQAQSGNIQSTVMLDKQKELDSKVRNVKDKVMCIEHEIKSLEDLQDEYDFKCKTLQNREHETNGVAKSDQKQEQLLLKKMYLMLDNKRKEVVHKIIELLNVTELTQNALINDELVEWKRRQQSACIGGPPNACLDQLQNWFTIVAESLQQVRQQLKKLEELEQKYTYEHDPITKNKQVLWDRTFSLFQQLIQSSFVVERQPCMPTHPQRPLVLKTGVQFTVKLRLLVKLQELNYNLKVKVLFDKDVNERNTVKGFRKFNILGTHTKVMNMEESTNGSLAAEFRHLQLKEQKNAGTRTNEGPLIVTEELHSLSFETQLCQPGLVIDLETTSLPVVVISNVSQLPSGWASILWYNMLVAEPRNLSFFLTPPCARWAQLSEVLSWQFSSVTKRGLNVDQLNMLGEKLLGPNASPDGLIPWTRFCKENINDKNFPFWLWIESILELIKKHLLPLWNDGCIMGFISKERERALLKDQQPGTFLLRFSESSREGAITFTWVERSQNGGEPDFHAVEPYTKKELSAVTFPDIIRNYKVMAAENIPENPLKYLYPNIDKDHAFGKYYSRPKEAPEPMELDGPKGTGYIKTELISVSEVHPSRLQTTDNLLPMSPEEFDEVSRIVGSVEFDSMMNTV
The experiment in a line: Inhibition of IFNgamma-induced STAT1 pathway in human Cal33 cells at 50 uM. Conditions: CAL-33. Format: cell-based.

The target in experiment [7] is Tyrosine-protein kinase JAK1 (Homo sapiens) (UniProt P23458). The experiment in a line: Inhibition of JAK1 phosphorylation in human Cal33 cells by Western blot analysis. Conditions: CAL-33. Format: cell-based.

The source made the active and inactive calls. The calls are words filed in the database; no cut-off is given here. Bounds are passed on as bounds.

One may read the IC50 as the point on the concentration scale where inhibition reaches its midpoint. Lower therefore signals greater potency.

Chain of Tyrosine-protein kinase JAK1 (Homo sapiens) (P23458 whole entry): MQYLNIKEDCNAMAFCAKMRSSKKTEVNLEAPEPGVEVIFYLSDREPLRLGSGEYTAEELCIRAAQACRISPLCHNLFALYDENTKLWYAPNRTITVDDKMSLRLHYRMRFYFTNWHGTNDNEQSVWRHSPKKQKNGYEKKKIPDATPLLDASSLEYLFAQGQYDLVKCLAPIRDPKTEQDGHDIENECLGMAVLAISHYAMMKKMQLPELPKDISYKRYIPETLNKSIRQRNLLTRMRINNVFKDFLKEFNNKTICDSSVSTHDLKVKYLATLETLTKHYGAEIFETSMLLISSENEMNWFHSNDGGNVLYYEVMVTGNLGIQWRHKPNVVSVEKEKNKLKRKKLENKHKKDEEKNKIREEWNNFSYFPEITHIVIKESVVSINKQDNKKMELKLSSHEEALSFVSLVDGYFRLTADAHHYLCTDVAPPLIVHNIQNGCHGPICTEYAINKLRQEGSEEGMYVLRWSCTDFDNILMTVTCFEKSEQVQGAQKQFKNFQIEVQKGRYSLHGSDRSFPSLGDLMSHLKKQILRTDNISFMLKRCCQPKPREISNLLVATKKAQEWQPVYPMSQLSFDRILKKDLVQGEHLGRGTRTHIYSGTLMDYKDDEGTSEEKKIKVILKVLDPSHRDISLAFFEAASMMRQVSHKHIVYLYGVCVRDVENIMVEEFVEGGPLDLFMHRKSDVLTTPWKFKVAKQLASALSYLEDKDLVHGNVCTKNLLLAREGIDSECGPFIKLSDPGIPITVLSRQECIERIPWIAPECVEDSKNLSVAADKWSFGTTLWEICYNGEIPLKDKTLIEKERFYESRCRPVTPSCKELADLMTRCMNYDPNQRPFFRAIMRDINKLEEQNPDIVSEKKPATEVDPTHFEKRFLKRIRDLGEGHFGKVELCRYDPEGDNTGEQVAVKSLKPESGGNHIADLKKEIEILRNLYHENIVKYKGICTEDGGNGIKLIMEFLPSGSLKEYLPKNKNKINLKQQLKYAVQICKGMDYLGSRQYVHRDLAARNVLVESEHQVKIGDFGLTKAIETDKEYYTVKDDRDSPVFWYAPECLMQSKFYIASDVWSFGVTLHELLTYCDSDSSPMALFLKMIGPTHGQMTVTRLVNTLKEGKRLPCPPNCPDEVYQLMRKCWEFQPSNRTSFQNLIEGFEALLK
Chain of Tyrosine-protein kinase JAK2 (Homo sapiens) (O60674 whole entry): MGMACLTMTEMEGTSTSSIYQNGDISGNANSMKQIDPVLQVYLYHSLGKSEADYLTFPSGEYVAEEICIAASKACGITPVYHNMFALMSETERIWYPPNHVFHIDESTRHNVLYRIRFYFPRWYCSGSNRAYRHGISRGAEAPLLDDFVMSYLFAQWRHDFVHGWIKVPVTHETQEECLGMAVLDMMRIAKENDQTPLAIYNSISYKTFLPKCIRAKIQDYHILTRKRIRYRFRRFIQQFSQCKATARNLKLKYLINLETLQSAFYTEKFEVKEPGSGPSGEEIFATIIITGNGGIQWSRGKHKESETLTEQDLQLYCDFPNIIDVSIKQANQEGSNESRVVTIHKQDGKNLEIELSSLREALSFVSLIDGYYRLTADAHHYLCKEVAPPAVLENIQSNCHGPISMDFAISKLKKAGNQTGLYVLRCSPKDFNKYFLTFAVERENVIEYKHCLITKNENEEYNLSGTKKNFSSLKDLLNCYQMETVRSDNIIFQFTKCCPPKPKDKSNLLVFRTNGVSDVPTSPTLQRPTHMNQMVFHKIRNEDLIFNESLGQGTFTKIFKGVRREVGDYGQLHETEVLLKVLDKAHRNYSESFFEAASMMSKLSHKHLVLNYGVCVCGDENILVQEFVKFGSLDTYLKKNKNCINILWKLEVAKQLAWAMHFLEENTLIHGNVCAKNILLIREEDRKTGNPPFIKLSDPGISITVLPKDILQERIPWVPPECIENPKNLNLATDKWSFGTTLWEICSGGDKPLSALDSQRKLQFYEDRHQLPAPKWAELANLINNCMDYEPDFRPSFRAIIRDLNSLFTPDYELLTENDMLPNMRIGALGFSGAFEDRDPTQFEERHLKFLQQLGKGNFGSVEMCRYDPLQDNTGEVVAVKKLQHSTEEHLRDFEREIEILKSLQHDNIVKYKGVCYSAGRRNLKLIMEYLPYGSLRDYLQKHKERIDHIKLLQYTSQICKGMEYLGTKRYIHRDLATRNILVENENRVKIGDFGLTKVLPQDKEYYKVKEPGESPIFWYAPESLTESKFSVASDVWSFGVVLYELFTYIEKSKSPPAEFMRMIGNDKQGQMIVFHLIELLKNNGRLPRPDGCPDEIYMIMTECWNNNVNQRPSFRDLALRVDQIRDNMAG
Description for FaDu: Growth inhibition of human FADU cells

For the compound `COc1ccc2nc(Nc3nc(=O)cc(C)[nH]3)nc(C)c2c1`, in experiment [1], the Ratio IC50 is more than 1.

`CC1=CC(C)(C)N=C(Nc2nc(C)c3cc(C)ccc3n2)N1`: the half-inhibitory concentration (IC50) in “cells [2]” worked out at 12.8 µM; in the experiment “cells [3]” it was 49.3 µM.

As for `Cc1cc2nc(Nc3nc(=O)c(C)c(C)[nH]3)nc(C)c2cc1C`, the Ratio IC50 in experiment [1] was more than 4.

Regarding `Cc1cc(C)c2nc(Nc3nc(C)c(C)c(O)n3)nc(C)c2c1`, the Ratio IC50 in experiment [1] is more than 7.

As to `Cc1nc(Nc2nc(=O)cc(-c3ccccc3)[nH]2)nc2cc3c(cc12)OCO3`, the Ratio IC50 in experiment [1] was more than 3.

For the compound `CCOc1ccc2nc(Nc3nc(=O)cc(-c4ccccc4)[nH]3)nc(C)c2c1`, the IC50 in “cells [2]” is 19 µM; in the experiment “cells [3]”, 37.8 µM.

Consider `CC1=CC(C)(C)N=C(Nc2nc(C)c3cc(C)cc(C)c3n2)N1`, for which the IC50 in the experiment “cells [2]” stood at 3.2 µM; in the experiment “cells [3]”, 2.4 µM; in “cells [4]” it was 1.2 µM; in the experiment on FaDu, 1.9 µM.

`CCOc1ccc2nc(NC3=NC(C)=CC(C)(C)N3)nc(C)c2c1`: the inhibition entry in experiment [5], in experiment [6] and in experiment [7] was “inactive” throughout. In addition, the IC50 in the experiment “cells [2]” stood at 17 µM; in “cells [3]”, 37.5 µM; in the experiment “cells [4]” it was 29.4 µM; in the experiment with FaDu it was 18.8 µM.

The values are drawn from ChEMBL document CHEMBL3352017, “2-Guanidinoquinazolines as new inhibitors of the STAT3 pathway” (Bioorg Med Chem Lett, 2014).
